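96-well plates; 48 h exposure; 5 concentrations. Endpoints by linear interpolation between flanking doses. Not reached: highest tested concentration assigned. Here, GI50 denotes the concentration required for 50% inhibition of growth. TGI: total growth inhibition.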 Where only a bound is given, the exact number is not on record here.

The text below walks through data of PubChem BioAssay (NCI).

Common to all, as to assay: NCI anticancer screen, dose series, 48 h
The test system of experiment [1] is DU-145 prostate.
Experiment [2] deals with HOP-92 NSCLC.
The subject of experiment [3] is HS 578T breast.
The subject of experiment [4] is IGROV1 ovarian.
For experiment [5], the system named is NCI/ADR-RES ovarian.
The subject of experiment [6] is OVCAR-5 ovarian.
Experiment [7] relates to OVCAR-8 ovarian.
The test system of experiment [8] is RXF 393 renal.
Experiment [9] concerns SK-MEL-2 melanoma.
For experiment [10], the system named is SNB-19 CNS.

For the compound `COc1cc2ncnc(Oc3ccc(NC(=O)Nc4ccc(CN5CCOCC5)c(C(F)(F)F)c4)c4ccccc34)c2cc1OC`, the GI50 was 1.59 µM in experiment [1]; 0.413 µM in [2]; 1.28 µM in [3]; 0.517 µM in experiment [4]; 0.919 µM in experiment [5]; 1.15 µM in experiment [6]. The GI50 was 0.537 µM in experiment [7], 0.692 µM in experiment [8], 1.61 µM in experiment [9] and 2.35 µM in experiment [10]. The TGI in experiment [1] was found to be 12.4 µM; in [2] it was 6.74 µM; in [3], 7.27 µM; in experiment [4] it was 3.25 µM; in [5], 21 µM; in experiment [6], 6.95 µM. In addition, the TGI in experiment [7] amounted to 6.53 µM; in experiment [8] it was 5.69 µM; in [9], 8.3 µM; in [10] it was 12.2 µM.

In the case of `CC(C)(C)NCC(O)c1ccccc1Cl` (configuration not stated), the GI50 in experiment [1], in [2], in [3], in experiment [4], in experiment [5] and in experiment [6] was more than 100 µM each time. Besides, the GI50 in experiment [7], in experiment [8], in experiment [9] and in experiment [10] was more than 100 µM throughout. Also, the TGI in [1], in [2], in experiment [3], in experiment [4], in experiment [5] and in experiment [6] was more than 100 µM in each case. Also, the TGI in experiment [7], in experiment [8], in experiment [9] and in [10] was more than 100 µM each time.

`C=C1C(=O)O[C@@H]2/C=C(/C)[C@@H](OC(C)=O)C[C@@H](O)/C(C)=C\[C@@H](OC(=O)[C@]3(C)O[C@@H]3C)[C@@H]12`: the TGI was 28.1 µM in experiment [1]; 26.7 µM in [2]; more than 100 µM in [3]; 32.9 µM in experiment [4]; more than 100 µM in [5]; 32.6 µM in [6]. The TGI in experiment [7] is 27.4 µM; in [8], 29.3 µM; in experiment [9] it was 33.9 µM; in experiment [10], more than 100 µM.

As for `COc1cc2c(cc1OC)C(Cl)C(c1ccc(Br)cc1)=C2Cl` (configuration not stated), the TGI in [1] is 23.8 µM; in experiment [2], 36.2 µM; in [3] it was 59.3 µM; in [4], 31.8 µM; in experiment [5], 30.9 µM; in experiment [6], 31 µM. Besides, the TGI turned out to be 26.1 µM in [7], 24.6 µM in experiment [8], 22.5 µM in experiment [9] and 32 µM in experiment [10].

As for `C[C@]12CC[C@H]3[C@@H](CC[C@]4(O)C[C@@H](O)CC[C@]34C=O)[C@@]1(O)CC[C@@H]2C1=CC(=O)OC1`, the TGI in experiment [1] was 0.863 µM; in experiment [3], more than 100 µM; in experiment [4] it was 19.6 µM; in [5], 1.92 µM; in experiment [6], 3.57 µM; in [7], 1.69 µM. In addition, the TGI came out at 0.877 µM in [8], 2.86 µM in [9] and 4.87 µM in experiment [10].

`COc1cc2c(cc1OCC(=O)Nc1ccc(Cl)cc1C(=O)c1ccccc1Cl)N=CC1CCCN1C2=O` (configuration not stated): the GI50 is 2.65 µM in experiment [1]; 10.9 µM in experiment [2]; 7.17 µM in experiment [3]; 3.9 µM in [4]; 21.5 µM in [5]; 24.6 µM in experiment [6]. The GI50 in experiment [7] is 12 µM; in experiment [8] it was 4.31 µM; in experiment [9] it was 7.4 µM; in experiment [10], 14.9 µM. Further, the TGI was determined as 8.56 µM in [1]; 28.8 µM in experiment [2]; 24 µM in experiment [3]; 16.4 µM in experiment [4]; 64.8 µM in [5]; 45.5 µM in experiment [6]. The TGI in [7] turned out to be 26.3 µM; in experiment [8], 15.6 µM; in experiment [9], 19.6 µM; in experiment [10] it was 30.1 µM.

As for `[N-]=[N+]=C(C(=O)CN1CCCC1=O)S(=O)(=O)c1ccccc1`, the TGI in experiment [1], in [3], in [4], in [5], in experiment [6] and in [7] was more than 100 µM in each case. The TGI in experiment [8], in [9] and in experiment [10] was more than 100 µM throughout.

Turning to `Cc1[nH]nc(C(F)(F)F)c1Cc1sc2c(c1C(=O)N1C[C@](C)(O)CO1)c(=O)n(C)c(=O)n2C(C)C`, the GI50 in experiment [1], in [2], in experiment [3], in experiment [5], in experiment [6] and in experiment [7] was more than 100 µM in each case. In addition, the GI50 in [8], in [9] and in [10] was more than 100 µM throughout. Besides, the TGI in experiment [1], in experiment [2], in [3], in experiment [5], in experiment [6] and in experiment [7] was more than 100 µM each time. In addition, the TGI in experiment [8], in [9] and in experiment [10] was more than 100 µM in each case.

For `CCCCCCC(=O)NC1=C(N2CC2)C(=O)C(NC(=O)CCCCCC)=C(N2CC2)C1=O`, the GI50 in experiment [1] is 1.13 µM; in [3], 3.11 µM; in [4], 2.31 µM; in experiment [5], 3.18 µM; in experiment [6], more than 100 µM; in experiment [8], 16.3 µM. Moreover, the GI50 in experiment [9] was 2.52 µM; in experiment [10], 12.9 µM. Moreover, the TGI is more than 100 µM in experiment [1]; more than 100 µM in experiment [3]; more than 100 µM in experiment [4]; more than 100 µM in experiment [5]; more than 100 µM in [6]; 79.5 µM in [8]. The TGI in experiment [9] was 6.14 µM; in [10] it was more than 100 µM.

Regarding `C[C@@H]1CC[C@@H]2[C@@H]1[C@H](OC(=O)/C=C/C1CCCCC1)[C@]1(C3CCCCC3)C[C@@H](OC(=O)CO)[C@@]2(C)O1`, the GI50 is 14.3 µM in experiment [1]; 7.14 µM in experiment [2]; 0.0162 µM in experiment [3]; 14.4 µM in experiment [4]; 0.579 µM in experiment [5]; 15.8 µM in experiment [6]. Besides, the figures for the GI50 in experiment [7], in [9] and in experiment [10] were 10.7 µM, 15 µM and 14.4 µM, respectively. Moreover, the TGI in [1] came out at 27.3 µM; in experiment [2], 19.6 µM; in experiment [3] it was 0.0556 µM; in experiment [4], 29.8 µM; in experiment [5], 18.4 µM; in experiment [6], 29.9 µM. For the same compound, the TGI in [7] amounted to 24.1 µM; in [9], 28.5 µM; in experiment [10], 27 µM.

`O=[N+]([O-])c1ccc2c(c1)C(N1CCN(CCO)CC1)Cc1ccc(F)cc1S2` (configuration not stated): the TGI in [1] is 29 µM; in [3] it was 26.1 µM; in experiment [4] it was 15.7 µM; in experiment [5] it was 25.4 µM; in experiment [6], 26.9 µM; in experiment [7], 25.5 µM. Also, the TGI in [8] is 4.73 µM; in [10] it was 24.6 µM.

On to `NC1CC(=O)c2c(-c3cccs3)sc(-c3cccs3)c21` (configuration not stated), for which the GI50 in experiment [1] was 14.4 µM; in experiment [2], 16.6 µM; in experiment [3], 36.7 µM; in experiment [4], 27.3 µM; in experiment [5], 29.5 µM; in [7], 30.2 µM. In addition, the GI50 in experiment [8] was 59.1 µM; in experiment [10], 36 µM. Moreover, the TGI in experiment [1] is 32.9 µM; in experiment [2], 66.2 µM; in experiment [3], more than 100 µM; in [4], more than 100 µM; in experiment [5], more than 100 µM; in experiment [7], more than 100 µM. The TGI in experiment [8] and in experiment [10] was more than 100 µM each time.

`CC1=CC2(C)/C=C(C)/C=C\CC(O)/C=C3/C=CC(=C4C(=O)OC2(CC1C)C4=O)OC3` (configuration not stated): the GI50 in experiment [1] was 1.81 µM; in experiment [2], 0.524 µM; in [3] it was 2.25 µM; in experiment [4], 2.93 µM; in experiment [5] it was 3.08 µM; in [6] it was 2.93 µM. In addition, the results for the GI50 in experiment [7], in experiment [9] and in experiment [10] were 2.12 µM, 2.61 µM and 12 µM, respectively. Moreover, the TGI in [1] stood at 3.59 µM; in [2] it was 1.54 µM; in [3], 6.97 µM; in experiment [4], 8.93 µM; in experiment [5], 12.2 µM; in [6], 10.1 µM. Further, the TGI in experiment [7] is 9.01 µM; in [9], 6.51 µM; in experiment [10] it was 25.9 µM.
